This assay has as its system human T helper cells. The assay is described as follows: IL-22 expression in human T helper cells activated with anti-CD3/anti-CD28 microparticles and recombinant Delta-like 4. In kind it is cell-based. The conditions noted are these: increasing concentrations of Delta-like 4 on microparticles; no antigen-presenting cells; restimulated after 5 days; FIG. 6. The method, then: Naive, i.e. antigen-inexperienced, human T helper cells are activated in the absence of antigen-presenting cells with microparticles loaded with stimulating anti-CD3 and anti-CD28 antibodies and increasing concentrations of recombinantly produced Delta-like 4. After 5 days the cells are restimulated and the expression of IL-22 is analyzed.

As for “Delta-like 4: recombinantly produced Notch ligand Delta-like 4, loaded on microparticles”, the “expression of IL-22” value is reported as “concentration-dependent expression of IL-22”.
